Tests used:
human HepG2 cells [1] = test: Intracellular calcium level with Fluo-3 AM in PA-treated HepG2 cells; format: cell-based; conditions: PA 0, 100, 300 or 500 μM, 24 hours
Procedure: First, male C57BL/6 mice at 8 weeks (Orient Bio, Korea) were raised in an animal facility of Lee Gil Ya Cancer and Diabetes Institute (Gachon University, Korea). Particularly, the mice were raised in a sterile chamber at the temperature of 23±1° C., with 12 hr/12 hr light/dark cycle, and free dietary environment. At this time, the mice were divided into the fasted group wherein the mice were fasted for 16 hours and the refed group wherein the mice were fasted for 16 hours and then fed for 4 hours. Each group was sub-divided into the high fat diet group (HFD) and the normal diet group (chow). The high fat diet group (HFD) mice were fed with diet containing 60% fat, while the normal diet group (chow) mice were fed with diet containing 10% fat. 8 weeks later, the mice were anesthetized and the liver was perfused by using buffer 1 (142 mM NaCl, 6.7 mM KCl, 10 mM HEPES and 2.5 mM EGTA, pH 7.4). Buffer 1 above was replaced with buffer 2 (0.5 mg/Me collagen, 66.7 mM NaCl, 6.7 mM KCl, 10 mM HEPES and 4.8 mM CaCl, pH 7.6), and then the perfused liver was extracted. The extracted liver was washed and degraded by using Percoll cushion gradient. The degraded cells were suspended and cultured in Hepatozyme-SFM (Gibco-BRL, USA) culture medium supplemented with 10% FBS and 1% antibiotics and antifungal agent. […] The mounted cells were analyzed using a fluorescence microscope (Zeiss Axioplan 2). […]

human HepG2 cells [2] = test: Intracellular calcium dynamics with Fura-2 AM in insulin resistance induced cells; format: cell-based
Procedure: First, human HepG2 cells were cultured in DMEM (Dulbecco's Modified Eagle Medium) supplemented with 10% fetal bovine serum (FBS), 25 mM glucose, 2 mM L-glutamine, 100 U/Ml of penicillin and 100 μg/Ml of streptomycin. At this time, the culture was performed in a 37° C., 5% CO2 incubator. The cultured cells were distributed in a culture plate at the density of 5.0×10^5 cells/well, followed by further culture for overnight. Palmitic acid (PA) was added to the plate at the concentration of 0, 100, 300 or 500 μM, followed by reaction for 24 hours. Then, the concentration of calcium was investigated by using Fluo-3 AM according to the same conditions and procedures as described in Example 1, and the results are shown in FIG. 2A and FIG. 2B. Intracellular calcium dynamics was confirmed in the fatty liver cell model constructed in vitro by inducing insulin resistance. At this time, the experiment was performed by the same manner under the same conditions as described in Example 3 except that Fura-2 AM was used instead of Fluo-3 AM.

Akt protein = test: Western blotting of Akt protein phosphorylation in insulin-treated HepG2 cells; format: cell-based, human; conditions: HepG2, PA 24 hours, 100 nM insulin; compared with insulin alone
Procedure: First, male C57BL/6 mice at 8 weeks were divided into the fasted group wherein the mice were fasted for 16 hours and the refed group wherein the mice were fasted for 16 hours and then fed for 4 hours. Each group was sub-divided into the high fat diet group (HFD) and the normal diet group (chow). The liver cells were extracted from the raised mice by the same manner and under the same conditions as described in Example 1. The extracted liver cells were lysed in a lysis buffer containing phosphatase (Sigma-Aldrich, USA) and protease inhibitor (Sigma-Aldrich, USA). Proteins extracted from 2 to 3 mg of the liver tissue were homogenized by using a tissue homogenizer (TissuLyser, Qiagen, USA) for 1.5 minutes at a frequency of 1/30 sec. The homogenized lysate was centrifuged at 12,000 rpm for 15 minutes and the supernatant was obtained. The amount of the extracted protein was quantified by using a protein assay kit (Bio-Rad Laboratories, USA), and at this time BSA was used as a standard sample. 3 mg of the protein was mixed with 6× loading buffer, followed by electrophoresis using 10% SDS-PAGE gel. The electrophoresed protein was transferred onto a polyvinylidene fluoride (PVDF) membrane by using a transfer buffer at 4° C. with 120 V for 1.5 hours. The PVDF membrane on which the protein was transferred was pretreated with a blocking buffer prepared by mixing 5% skim milk with TBS buffer (TBS-T, pH 7.6) supplemented with Tween 20 for 30 minutes, and the membrane was washed with TBS-T. The washed membrane was added with the antibody against Akt (Cell Signaling Technology, USA), Akt(T308) (Cell Signaling Technology, USA), Akt(S473) (Cell Signaling Technology, USA), FOXO3A (Cell Signaling Technology, USA), FOXO3A(S253) (Cell Signaling Technology, USA), GSK-3β (Cell Signaling Technology, USA) or GSK-3β(S9) (Cell Signaling Technology, USA) protein as a primary antibody, followed by reaction at 4° C. for 12 hours. At this time, the antibody against actin (Santa Cruz Biotechnology, USA) protein was used for the control group. Upon completion of the reaction, the secondary antibody corresponding to the primary antibody was added thereto, followed by reaction at room temperature for 30 minutes. The PVDF membrane was washed with TBS-T buffer three times. The washed PVDF membrane was added with ECL solution (Thermo Scientific, USA), followed by image observation.
To investigate the changes in insulin sensitivity when insulin was added to the fatty liver cell model constructed in vitro, the phosphorylations of those proteins that were involved in insulin signaling mechanism were examined. PA was added to the human HepG2 cells prepared in Example 3, followed by reaction for 24 hours. […]

With `CCCCCCCCCCCCCCCC(=O)O` [PA, Palmitic acid] the “concentration of calcium in the cytoplasm” value (human HepG2 cells [1]) was “increased”, the intracellular calcium concentration (human HepG2 cells [2]) was “significantly increased” and the Akt protein phosphorylation (Akt protein) was “significantly inhibited”.
